For data set [1], the system named is cancer cell lines. The note with it: cited from earlier work.
Data set [2] can be described thus: GSH-mediated cleavage monitored by LC/MS. The data set is classed as physicochemical. The note with it: 5 mM GSH, 5 μM conjugate 11 in HEPES buffer, 7.4 pH, 37 °C. An excerpt: As reported previously, the GSH mediated cleavage of the disulfide linker results in the release of the 3‐HQ derivative together with the Amino‐BODIPY.[30] […] As the mechanism of GSH‐mediated cleavage and LC/MS analysis in Figure 2A and 2B depict nucleophilic thiol group on glutathione attacks the disulfide bond resulting in the formation of GSH adducts 19 and 20. Intermediate 19 further reacts with excess of GSH and self‐immolative linker is cyclized while free Amino‐BODIPY 16 is released.
Figure 2 (A) Mechanism of GSH‐mediated cleavage of conjugate 11 (5 mM GSH, 5 μM conjugate 11 in HEPES buffer, 7.4 pH, 37 °C). (B) Time‐dependent stability of compounds 1, 11, 16, 19 and 20 monitored by LC/MS. (C) Excitation/emission spectra of the conjugate 11 and the released Amino‐BODIPY 16 enabling the OFF‐ON fluorescence effect when excitation at 485 nm and emission at 530 nm is applied.

Data set [3] relates to lung fibroblast cell line MRC‐5. Nature of the data set: Toxicity to non-tumor fibroblasts MRC. It counts as cell-based, human. Here is the method:
(§1) Finally, the amino‐BODIPY 16 and all prepared conjugates 1–15 were tested for cytotoxic activity against selected cancer cell lines (Table 1). The tests were performed on cancer cell lines derived from solid tumors as well as hematological malignancies: CCRF‐CEM (acute lymphoblastic leukemia), K562 (chronic myeloid leukemia), A549 (lung adenocarcinoma), colorectal carcinoma cell lines HCT116 with and without functional p53 protein HCT116p53, respectively. The panel also included chemoresistant subclone CCRF‐CEM‐DNR (resistant to daunorubicine) overexpressing P‐glycoprotein and/or lung resistance‐related protein (LRP), which are pumps or detoxifying systems responsible for the most common forms of clinical resistance. To evaluate non‐tumor cells′ toxicity, we used human skin fibroblast cell line BJ and lung fibroblast cell line MRC‐5. […] This dye is also slightly toxic to normal fibroblast BJ and MRC with IC50>40 μM and low‐density seeding variants BJ‐LD and MRC‐LD with higher proliferation and no contact inhibition. Connection of amino‐BODIPY 16 with 3‐HQs via non‐cleavable maleimide linker (conjugates 6–10) as well as via cleavable linker (compounds 11–15) causes higher selectivity toward CCRF‐CEM lines. […] The selectivity of conjugates toward leukemia cells could be caused by interaction with a specific target for the CCRF‐CEM or K562 cells, respectively, or by particular transport to these cell lines. The later reason could explain the lower toxicity of amino‐BODIPY released from the conjugate compared to free amino‐BODIPY 16 directly applied to the cells.

Data set [4] deals with HCT116 (colorectal carcinoma). Briefly: Cytotoxic activity against HCT116. It counts as cell-based. The note with it: Homo sapiens, HCT-116; average of at least three independent experiments. As to the method: as §1
Data set [5] concerns HCT116p53 (colorectal carcinoma). Nature of the data set: Cytotoxic activity against HCT116p53. The data set is classed as cell-based. Conditions: average of at least three independent experiments. Here is the method: as §1
The subject of data set [6] is U2OS. Briefly: Cytotoxic activity against U2OS. The data set is classed as cell-based. Conditions: Homo sapiens, average of at least three independent experiments.
The subject of data set [7] is BJ‐LD (low‐density seeding variant). Briefly: Toxicity to non-tumor fibroblasts BJ-LD. It counts as cell-based. Conditions: Homo sapiens, Fibroblast, higher proliferation, no contact inhibition. As to the method:
as §1

Data set [8] deals with CCRF‐CEM‐DNR (resistant to daunorubicine). Nature of the data set: Cytotoxic activity against CEM-DNR. It counts as cell-based. Conditions: Homo sapiens, daunorubicine-resistant subclone, average of at least three independent experiments. Here is the method: as §1
Data set [9] has as its system skin fibroblast cell line BJ. Briefly: Toxicity to non-tumor fibroblasts BJ. The data set is classed as cell-based, human. As to the method: as §1
In data set [10] the test system is K562 (chronic myeloid leukemia). Nature of the data set: Cytotoxic activity against K562. It counts as cell-based. Conditions: Homo sapiens, average of at least three independent experiments. As to the method:
as §1

Data set [11] concerns K562‐TAX. Nature of the data set: Cytotoxic activity against K562-TAX. The data set is classed as cell-based. The note with it: average of at least three independent experiments.
In data set [12] the test system is CCRF‐CEM (acute lymphoblastic leukemia). Briefly: Cytotoxic activity against CCRF-CEM. Conditions: Homo sapiens, average of at least three independent experiments. It counts as cell-based. As to the method:
as §1

Data set [13] deals with A549 (lung adenocarcinoma). Briefly: Cytotoxic activity against A549. It counts as cell-based. Conditions: Homo sapiens, average of at least three independent experiments. Here is the method:
as §1

In data set [14] the test system is MRC‐LD (low‐density seeding variant). Nature of the data set: Toxicity to non-tumor fibroblasts MRC-LD. It counts as cell-based. The note with it: Homo sapiens, Fibroblast, higher proliferation, no contact inhibition. Here is the method: as §1
Setting [15] is: Homo sapiens, MRC5, non-tumor lung fibroblasts.

Each structure is given as a SMILES string. Where two headings read alike, the source gives them in different places.

As to `O=c1c(O)c(-c2ccc(N3CCCCC3)c([N+](=O)[O-])c2)[nH]c2ccccc12` [2‐(3‐nitro‐4‐piperid‐1‐ylphenyl)‐3‐hydroxy‐4(1H)‐quinolinone], the “Activity and selectivity against cancer cell lines” value in [1] was “significant activity but low selectivity”.

With `NC(=O)c1cc(-c2[nH]c3ccccc3c(=O)c2O)ccc1N1CCCCC1` [2‐(3‐carboxamide‐4‐piperid‐1‐ylphenyl)‐3‐hydroxy‐4(1H)‐quinolinone], the “Activity and selectivity toward cancer cells” value in data set [1] is “significant activity and increased selectivity”.

`Nc1c(Cl)cc(-c2[nH]c3ccccc3c(=O)c2O)cc1Cl` [2‐(4‐amino‐3,5‐dichlorophenyl)‐3‐hydroxy‐4(1H)‐quinolinone]: in data set [1] (reported previously, no reference given), the “Activity against various cancer cell lines” value is listed as “active”.

Turning to `NC(=O)C(CSSC[C@H](NC(=O)CC[C@H](N)C(=O)O)C(=O)NCC(=O)O)NC(=O)c1ccc2c(=O)c(O)c(-c3ccccc3)[nH]c2c1` (some centres unmarked) [Compound 20], the “Stability of cleavage intermediate by LC/MS” value in data set [2] was “relatively stable”.

As for `Cc1cc(C)n2c1C=C1C=CC(NC(=O)OCCSSCC(NC(=O)c3ccc4c(=O)c(O)c(-c5ccccc5)[nH]c4c3)C(N)=O)=[N+]1[B-]2(F)F` (centres unmarked) [Compound 11], the IC50 (in general, the concentration that inhibits the measured activity by half) in [3] (setting [15]) is over 50 µM; in data set [4], over 50 µM; in data set [5], over 50 µM; in data set [6], over 50 µM; in data set [7], over 50 µM; in [8], 34.4 µM. In addition, the half-inhibitory concentration (IC50) in data set [9] (Homo sapiens, Skin fibroblast) is over 50 µM; in data set [10] it was 49.8 µM; in [11], 39.8 µM; in data set [12], 19.7 µM; in data set [13], 49.9 µM; in [14], over 50 µM.

For `Cc1cc(C)n2c1C=C1C=CC(NC(=O)OCCCN3C(=O)CC(SCC(NC(=O)c4ccc5c(=O)c(O)c(-c6ccc(F)cc6)[nH]c5c4)C(N)=O)C3=O)=[N+]1[B-]2(F)F` (centres unmarked) [Compound 7], the IC50 in data set [3] (setting [15]), in data set [4], in data set [5], in [6], in data set [7] and in data set [8] was over 50 µM in each case. Moreover, the IC50 in data set [9] (Homo sapiens, Skin fibroblast) was over 50 µM; in data set [10], over 50 µM; in data set [11] it was over 50 µM; in data set [12], 6.37 µM; in data set [13], over 50 µM; in data set [14], over 50 µM.

Regarding `Cc1cc(C)n2c1C=C1C=CC(NC(=O)OCCCN3C(=O)CC(SCC(NC(=O)c4ccc5c(=O)c(O)c(-c6ccccc6)[nH]c5c4)C(N)=O)C3=O)=[N+]1[B-]2(F)F` (centres unmarked) [Compound 6], the IC50 in [3] (setting [15]), in [4], in data set [5], in data set [6], in data set [7] and in data set [8] was over 50 µM in each case. Also, the IC50 is over 50 µM in [9] (Homo sapiens, Skin fibroblast); over 50 µM in data set [10]; over 50 µM in data set [11]; 14.6 µM in data set [12]; over 50 µM in [13]; over 50 µM in [14].

On to `O=c1c(O)c(-c2ccccc2)[nH]c2ccccc12` [2‐phenyl‐3‐hydroxy‐4(1H)‐quinolinone], for which the “Activity against cancer cells” value in data set [1] is “no activity”.

Turning to `Cc1cc(C)n2c1C=C1C=CC(NC(=O)OCCSSCC(NC(=O)c3ccc4c(=O)c(O)c(-c5ccc(N6CCCCC6)c(C(N)=O)c5)[nH]c4c3)C(N)=O)=[N+]1[B-]2(F)F` (centres unmarked) [Compound 15], the IC50 in data set [3] (setting [15]) was over 50 µM; in data set [4], over 50 µM; in [5], over 50 µM; in data set [6] it was over 50 µM; in data set [7], over 50 µM; in [8], 46.2 µM. Further, the IC50 was over 50 µM in data set [9] (Homo sapiens, Skin fibroblast); over 50 µM in data set [10]; 46.2 µM in [11]; over 50 µM in data set [12]; over 50 µM in data set [13]; over 50 µM in data set [14].

With `O=c1c(O)c(-c2ccc(F)cc2)[nH]c2ccccc12` [2‐(4‐fluorophenyl)‐3‐hydroxy‐4(1H)‐quinolinone], the “Cytotoxicity against cancer cells” value in data set [1] was “low cytotoxicity”.

Regarding `Cc1cc(C)n2c1C=C1C=CC(N)=[N+]1[B-]2(F)F` [Compound 16, amino‐BODIPY], the IC50 was over 40 µM in data set [3] (setting [15]); 40.1 µM in data set [3] (non-tumor lung fibroblasts); 11.6 µM in data set [4]; 12.7 µM in data set [5]; 19.8 µM in data set [6]; 28.1 µM in data set [7]. Further, the IC50 in data set [8] is 5.08 µM; in data set [9], 49.7 µM; in [9] (Homo sapiens, Skin fibroblast) it was over 40 µM; in [10], 3.29 µM; in [11] it was 6.41 µM; in data set [12] it was 4.25 µM. Besides, the IC50 came out at 47.2 µM in [13] and 26.9 µM in data set [14].

These data come from publication PMC8562313, “Cytotoxicity of Amino‐BODIPY Modulated via Conjugation with 2‐Phenyl‐3‐Hydroxy‐4(1H)‐Quinolinones” (ChemistryOpen, 2021).
